The values below come from US11573241B2, “Total cellular iron as a marker of cancer stem cells and uses thereof” (Institut National de la Sante et de la Recherche Medicale …, priority 2016, dated 2023).

Data set [1] is classed as physicochemical. The source says:
FIG. 1. Salinomycin and AM5 sequester iron in lysosomes and trigger ferritin degradation. a, Chemical strategy to visualize small molecules in cells. b, Fluorescence microscopy images of U2OS cells showing the subcellular localization of labeled Sal derivatives AM4, AM5, and AM9. Lysotracker Deep Red stains the lysosomes and 4′,6-diamidino-2-phenylindole (DAPI) stains nuclear DNA. Scale bar, 10 μm. Zoom corresponds to ×6. c, Live cell fluorescence microscopy images showing the subcellular localization of iron(II) using the fluorogenic reduction of RhoNox-1 (green) in HMLER CD24^low cells treated with Sal or AM5 or AM9 (0.5 μM) for 48 h. Lysotracker deep red stains the lysosomes (red) and DAPI stains nuclear DNA (blue). Scale bar, 10 μm. d, Fixed cell fluorescence microscopy images showing the subcellular localization of iron(II) using the fluorogenic reduction of RhoNox-1 (green) in HMLER CD24^low cells treated with Sal or AM5 or AM9 (0.5 μM) for 48 h. e, Quantification of lysotracker-positive vesicles colocalizing with RhoNox-1 in fixed cells was carried out by means of visual inspection. At least 75 cells were counted per condition. Data represent three independent biological replicates (n=number of lysotracker vesicles). […] Spectra were recorded in CD3CN. […] For k and I, Samples prepared in CD3OD, spectra recorded at 298 K, 5 min following sample preparation (600 MHz). […]

The subject of data set [2] is HMLER CD24^low cells. Kind of data set: Lysosomal membrane permeabilization assay. In kind it is cell-based, human. As to conditions: 48 h. On the procedure:
Lysosomal membrane permeabilization assay. Lysosomal membrane permeabilization (LMP) was assessed by monitoring the release of FITC-Dextran (FD10S, 10 kDa, Sigma) from lysosomes. In brief, cells were incubated with 1 mg/mL FITC-Dextran for 2 h at 37° C. Cells were washed, chased with culture medium for 2 h and treated as indicated for 48 h or with CQ (positive control) for 3 h. Cells were then fixed with 2% formaldehyde/PBS, washed with PBS, mounted and acquired with a 60×APO TIRF oil immersion objective of Nipkow Spinning Disk confocal system.

Data set [3] concerns cells from treated PDX 1 and 2. Kind of data set: Limiting dilution assay, tumor-seeding capacity (ELDA). As to conditions: re-implantation into secondary mice. In kind it is in vivo, NOD/SCID mice. The text has this: Limiting dilution assay. Cells from 4-week treated mice were re-implanted into one to four secondary NOD/SCID mice with injection of 10, 50, 500 or 5000 cells for each treated tumor to functionally evaluate the proportion of residual CSCs in each treatment group (Unt., Doc, Sal, AM5) for the PDX 1 and 2. Each mouse that developed a tumor reaching a size of 10 mm was considered as a tumor-bearing mouse.
Estimation of number of CSCs in vivo. The number of mammary gland outgrowths obtained in a fat pad after cell re-implantation is currently used to evaluate the number of stem cells able to repopulate this fat pad. It is based on self-renewal and differentiation abilities, two hallmarks of stem cells. In the same manner, estimation of the number of CSCs can be obtained from tumor outgrowth data collected after limited dilution re-implantation of each group of treatments, based on tumor-initiating capacities of CSCs. For calculation, an online tool is available using Extreme Limiting Dilution Analysis (ELDA) (http://bioinf.wehi.edu.au/software/elda/) for limiting dilution analysis based on the Poisson single-hit model according to the number of outgrowths observed and the number of pat pad re-implanted for each cell dilution.

A further data set has as its system iCSCA2 cells. The data set can be described thus: Immunoblotting of iron homeostasis regulatory proteins. In kind it is cell-based. As to the method: Immunoblotting. Cells were treated as indicated, then washed twice with PBS and lysed with 2× Laemmli buffer. Cell extracts were heated at 95° C. for 5 min, sheared through a 26-gauge needle and quantified with a Nanodrop 2000 (Thermo Scientific). Protein lysates (˜100 μg) were resolved by SDS-PAGE electrophoresis and transferred onto PVDF membranes (Amersham). Membranes were blocked with 5% BSA, 0.1% Tween-20/TBS for 1 h. The blots were then probed with the relevant primary antibodies in 5% BSA, 0.1% Tween-20/TBS at 4° C. overnight with gentle agitation. Membranes were washed with 0.1% Tween-20/TBS for 30 min and were incubated with secondary antibodies for 1 h at RT. Antigens were detected by ECL (Amersham). Imaging was performed using a ChemiDoc™ XRS+ System (Biorad).

Data set [4] concerns HMLER CD24^low and iCSCL-10A2 cells. Kind of data set: Intracellular GSH level quantification. As to conditions: 0.5 μM. In kind it is cell-based. As to the method:
Intracellular GSH level quantification. Cells were treated with Sal or AM5 (0.5 μM) as indicated, then harvested and counted. The intracellular GSH level was measured using a commercial kit (ab205811, Abcam) according to the manufacturer's protocol.

Data set [5] relates to HMLER CD24^low cells. The data set can be described thus: Immunoblotting of iron homeostasis regulatory proteins. In kind it is cell-based, human. As to conditions: for level of autophagy marker protein LC3-II: 24 h; for levels of IRP2, TfR and ferritin: immunoblotting.

Entries after “also recorded” stand apart in the source; their conditions may differ.

As to `C#CCN[C@@H]1C=C[C@]2(O[C@H]([C@@H](CC)C(=O)[C@@H](C)[C@@H](O)[C@H](C)C3O[C@@H](C(CC)C(=O)O)CC[C@@H]3C)[C@@H](C)C[C@H]2C)O[C@@]12CC[C@@](C)([C@H]1CC[C@](O)(CC)[C@H](C)O1)O2` (some centres unmarked) [AM5, Sal-Propargylamine], in data set [1], the “stability in the presence of iron(II) over time” value is “stable”. In the data set with HMLER CD24^low cells [2], the “lysosomal membrane permeabilization (release of lysosomal dextran)” value is “induced a permeabilization of the lysosomal membrane”. Besides, in data set [3], the “tumor-seeding capacity of tumor cells treated in vivo” value is “decreased tumor-seeding capacity; also recorded: more potent than both Sal and Doc”. The “levels of IRP2, TfR and ferritin” value in the data set with iCSCA2 cells was “response characteristic of a cytosolic depletion of iron”; with HMLER CD24^low cells [5], “increased levels of iron-responsive element-binding protein 2 (IRP2) and transferrin receptor (TfR) along with reduced levels of ferritin”. The “endogenous levels of GSH” value in data set [4] is on record as “diminution of endogenous levels of the ROS scavenger glutathione (GSH)”. For the same compound, the “level of autophagy marker protein LC3-II” value in the data set with HMLER CD24^low cells [5] is reported as “increased”.

For `CC[C@@H](C(=O)[C@@H](C)[C@@H](O)[C@H](C)[C@@H]1O[C@@H]([C@@H](CC)C(=O)O)CC[C@@H]1C)[C@H]1O[C@]2(C=C[C@@H](O)[C@]3(CC[C@@](C)([C@H]4CC[C@](O)(CC)[C@H](C)O4)O3)O2)[C@H](C)C[C@@H]1C` [Sal, salinomycin, reference compound], the “stability in the presence of iron(II) over time” value in data set [1] is on record as “formation of byproducts”. For the same compound, the “lysosomal membrane permeabilization (release of lysosomal dextran)” value with HMLER CD24^low cells [2] was “induced a permeabilization of the lysosomal membrane”. In data set [3], the “tumor-seeding capacity of tumor cells treated in vivo” value is “decreased tumor-seeding capacity”. The “levels of IRP2, TfR and ferritin” value in the data set with iCSCA2 cells is “response characteristic of a cytosolic depletion of iron”. In addition, the “endogenous levels of GSH” value in data set [4] is listed as “diminution of endogenous levels of the ROS scavenger glutathione (GSH)”. Moreover, in the data set on HMLER CD24^low cells [5], the “level of autophagy marker protein LC3-II” value was “increased”; the “levels of IRP2, TfR and ferritin” value was “increased levels of iron-responsive element-binding protein 2 (IRP2) and transferrin receptor (TfR) along with reduced levels of ferritin”.
